Laboratory results reported in patent publication US20240415819A1, “MACROCYCLIC COMPOUNDS AS PROTEASOME SUBUNIT BETA TYPE-5 INHIBITORS” (Lead Discovery Center GmbH, priority 2021, published 2024).

Legend:
[1] = target: T1, β5 subunit of the human constitutive proteasome (CPS) (Homo sapiens, UniProt P28074); assay: β5 inhibition assay, human constitutive proteasome (Suc-LLVY-AMC); assay type: biochemical; conditions: IC50 class, Suc-LLVY-AMC substrate
T1 construct: purchased Boston Biochem E-360
Method: The enzymatic activity of the β5 subunit of the human constitutive proteasome (CPS) is analyzed. In another assay, which differs from the assay of the human constitutive proteasome only in using the human immunoproteasome (IPS) the enzymatic activity of the β5 subunit of the human immunoproteasome (IPS) is analyzed. […] Inhibition is indicated as IC50 [nM] (“-”=not measured).

[2] = test system: RPMI 8226 (B lymphocyte cell line, multiple myeloma); assay: 48 hr CTG viability assay, RPMI 8226; assay type: cell-based; conditions: Homo sapiens, RPMI-8226; 48 hr CTG; read-out: RPMI-8226 IC50
Procedure, shortened: (§1)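 Growth inhibition by compound over 48 h; IC50 (nM) derived from duplicate CellTiter-Glo luminescence readings across 0.0015–10 uM.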

[3] = test system: A2780 (human ovarian cancer cell line); assay: 48 hr CTG viability assay, A2780; assay type: cell-based
Method: (§2) A viability assay was conducted for 48 hours to evaluate the inhibition of cancer cell growth by proteasome inhibitors. Briefly, the candidate cell line was plated with a 96-well plate following density of cells, respectively. 6×10^3 Cells/well for A2780 (human ovarian cancer cell line) and MDA-MB-468 (breast carcinoma), 8×10^3 Cells/well for Hs746T (human gastric carcinoma cell line), 1.1×10^4 Cells/well for MM1 S and RPMI 8226 (multiple myeloma). After 24 hours, the cells were treated with various concentrations of the compound (ranging from 0.0015 uM to 10 uM). […] After 48 hours of incubation at 37° C., 5% CO2 incubator, cells were analyzed for viability using the CellTiter-Glo Luminescent Cell Viability assay (Promega, Cat #G7570). All viability assays were performed in duplicate and Luminescence was read using an Envision (Perkin Elmer, USA). Data were analyzed using XLfit software. […] (human gastric carcinoma cell line), MM1 S (B lymphoblast cell line), and RPMI 8226 (B lymphocyte cell line, multiple myeloma). Inhibition is indicated as IC50 [nM] (“-”=not measured).

[4] = test system: MM1 S (B lymphoblast cell line); assay: 48 hr CTG viability assay, MM1S; assay type: cell-based; conditions: Homo sapiens, 48 hr CTG, read-out: MM1S IC50
Procedure, shortened: as §1

[5] = test system: A549 (human lung carcinoma cell line); assay: Glo assay of A549 cells (Table 3; ProteasomeGlo plating scheme); assay type: cell-based; conditions: Homo sapiens; A549 cells; read-out: PGLo A549
Procedure, shortened: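 Luminescent read-out of cellular chymotrypsin-like proteasome activity: cells exposed to compound 105 min at 37° C., 5% CO2, then given Suc-LLVY-Glo reagent, shaken 2-5 min and kept dark 10-15 min before reading. Values are IC50 [nM].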

[6] = test system: MDA-MB-468 (breast carcinoma); assay: 48 hr CTG viability assay, MDA-MB-468; assay type: cell-based; conditions: Homo sapiens
Method: as §2

[7] = test system: Hs 746T (human gastric carcinoma cell line); assay: 48 hr CTG viability assay, Hs 746T; assay type: cell-based; conditions: Hs746T, 48 hr CTG, read-out: Hs 746T IC50
Procedure, shortened: as §1

[8] = target: T2, β5 subunit of the human immunoproteasome (IPS) (Homo sapiens, UniProt P28062); assay: β5 inhibition assay, human immunoproteasome (Suc-LLVY-AMC); assay type: biochemical; conditions: IC50 class, Suc-LLVY-AMC substrate
T2 construct: purchased Boston Biochem E-370
Procedure, shortened: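 β5 activity is read as liberated AMC fluorescence (355/460 nm) after 4 h dark reaction at RT with 22.6 μM Suc-LLVY-AMC, stopped by 1 μM bortezomib. Beforehand, 1 nM human IPS and compound sat 10 min at RT in HEPES pH 7.5 buffer containing NaCl, 0.02% SDS and DTT.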

Cc1ccc2cc1CNC(=O)[C@H](CCc1ccccc1)NC(=O)[C@@H](NC(=O)[C@@H](C)c1ccc(N)cc1)CC(=O)N1CCCC(CCO2)C1 (stereo partly drawn) [Compound 634, (2S)-2-(4-aminophenyl)-N-((9S,12S)-5^4-methyl-8,11,14-trioxo-9-phenethyl-4-oxa-7,10-diaza-1(3,1)-piperidina-5(1,3)-benzenacyclotetradecaphane-12-yl)propanamide]
IC50 [1]: < 0.1 µM | IC50 [2]: < 0.1 µM | IC50 [3]: < 0.1 µM | IC50 [4]: < 0.1 µM | IC50 [5]: < 0.1 µM | IC50 [6]: < 0.1 µM | IC50 [7]: < 0.1 µM | IC50 [8]: < 0.1 µM

Cc1ccc2cc1CNC(=O)[C@H](CCc1cccnc1)NC(=O)[C@@H](NC(=O)C(C)(C)CO)CC(=O)N1CCCC(CCO2)C1 (stereo partly drawn) [Compound 683, 3-hydroxy-2,2-dimethyl-N-((9S,12S)-5^4-methyl-8,11,14-trioxo-9-(2-(pyridin-3-yl)ethyl)-4-oxa-7,10-diaza-1(3,1)-piperidina-5(1,3)-benzenacyclotetradecaphane-12-yl)propanamide]
IC50 [1]: < 0.1 µM | IC50 [2]: < 0.1 µM | IC50 [4]: < 0.1 µM | IC50 [5]: < 0.1 µM | IC50 [6]: < 0.1 µM | IC50 [7]: < 0.1 µM | IC50 [8]: < 0.1 µM

Cc1ccc2cc1CNC(=O)[C@H](CCc1ccccc1)NC(=O)[C@@H](NC(=O)N1CCc3cc(N)ccc31)CC(=O)N1CCCC(CCO2)C1 (stereo partly drawn) [Compound 704, 5-amino-N-((9S,12S)-5^4-methyl-8,11,14-trioxo-9-phenethyl-4-oxa-7,10-diaza-1(3,1)-piperidina-5(1,3)-benzenacyclotetradecaphane-12-yl)indoline-1-carboxamide]
IC50 [1]: < 0.1 µM | IC50 [2]: < 0.1 µM | IC50 [4]: < 0.1 µM | IC50 [5]: < 0.1 µM | IC50 [6]: < 0.1 µM | IC50 [7]: < 0.1 µM | IC50 [8]: < 0.1 µM

Cc1ccc2cc1CNC(=O)[C@H](CCc1ccccc1)NC(=O)[C@@H](NC(=O)C1(CO)CCNCC1)CC(=O)N1CCCC(CCO2)C1 (stereo partly drawn) [Compound 730, 4-(hydroxymethyl)-N-((9S,12S)-5^4-methyl-8,11,14-trioxo-9-phenethyl-4-oxa-7,10-diaza-1(3,1)-piperidina-5(1,3)-benzenacyclotetradecaphane-12-yl)piperidine-4-carboxamide]
IC50 [1]: < 0.1 µM | IC50 [2]: 0.5 to 1 µM | IC50 [4]: 0.1 to 0.5 µM | IC50 [5]: 0.1 to 0.5 µM | IC50 [6]: 1 to 5 µM | IC50 [7]: 0.5 to 1 µM | IC50 [8]: < 0.1 µM

Cc1ccc2cc1CNC(=O)[C@H](CCc1ccccc1)NC(=O)[C@@H](NC(=O)C(C)(C)CO)CCC(=O)NCCCO2 [Compound 732, 3-hydroxy-2,2-dimethyl-N-((10S,13S)-1^4-methyl-7,11,14-trioxo-13-phenethyl-2-oxa-6,12,15-triaza-1(1,3)-benzenacyclohexadecaphane-10-yl)propanamide]
IC50 [1]: < 0.1 µM | IC50 [2]: 0.5 to 1 µM | IC50 [4]: 1 to 5 µM | IC50 [5]: 1 to 5 µM | IC50 [6]: 1 to 5 µM | IC50 [7]: > 5 µM | IC50 [8]: < 0.1 µM

Cc1ccc2cc1CNC(=O)[C@H](CCc1ccccc1)NC(=O)[C@@H](NC(=O)C(C)(C)CO)CC(=O)NCCCCO2 [Compound 735, 3-hydroxy-2,2-dimethyl-N-((10S,13S)-1^4-methyl-8,11,14-trioxo-13-phenethyl-2-oxa-7,12,15-triaza-1(1,3)-benzenacyclohexadecaphane-10-yl)propanamide]
IC50 [1]: 0.1 to 0.5 µM | IC50 [2]: 1 to 5 µM | IC50 [4]: 1 to 5 µM | IC50 [5]: > 5 µM | IC50 [6]: > 5 µM | IC50 [7]: > 5 µM | IC50 [8]: < 0.1 µM

Cc1ccc2cc1CNC(=O)[C@H](CCc1ccccc1)NC(=O)[C@@H](NC(=O)[C@H](C)c1ccc(N)cc1)CC(=O)N1CCCC(CCO2)C1 (stereo partly drawn) [Compound 738, (2R)-2-(4-aminophenyl)-N-((9S,12S)-5^4-methyl-8,11,14-trioxo-9-phenethyl-4-oxa-7,10-diaza-1(3,1)-piperidina-5(1,3)-benzenacyclotetradecaphane-12-yl)propanamide]
IC50 [1]: < 0.1 µM | IC50 [2]: < 0.1 µM | IC50 [3]: < 0.1 µM | IC50 [4]: < 0.1 µM | IC50 [5]: < 0.1 µM | IC50 [6]: < 0.1 µM | IC50 [7]: < 0.1 µM | IC50 [8]: < 0.1 µM
